These results are taken from patent publication US20180251431A1 (VERTEX PHARMACEUTICALS INCORPORATED, priority 2016, published 2018).

This test relates to HEK293 cells. Briefly: HEK293 VLCFA-LPC IC50 determination (13C-labeled C26:0 LPC by UHPLC/MS). It is filed as cell-based, human. Conditions: Homo sapiens, HEK293, HEK293 cells; average of one or more replicates; read-out: Average HEK293 IC50. On the procedure: HEK293 cells were treated with compounds, such as those listed in Tables A-E of Example 1, using the representative manual protocols described below. The protocols below were also adapted to a semi-automated protocol using standard methods in the art.
Cell Culture Growth Conditions:
HEK293 cells were maintained in FreeStyle F17 media (Gibco # A13835) supplemented with PenStrep (1%, Gibco #15070-063), Glutamax (2%, Gibco #35050-061), and Pluronic (0.1%, Gibco #24040-032) (“supplemented media”). Suspension cultures were grown in disposable Erlenmeyer flasks at about 120 rpm, 37° C., 5% CO2, and 80% humidity. Cell densities were kept between about 0.5 and 3 million cells per mL, in about 50-200 mL per flask.
Treatment of Cells with Compounds Provided Herein:
The cells were treated with compounds using either a total of 900 uL cell media volume (high-volume assay) or a total of 200 uL cell media volume (low-volume assay). In the high volume assay, 450 μL of supplemented media plus 13C-acetate (1.0 mg/mL, Sigma Aldrich #282014) were added to 0.5 μL of a compound (such as those in Tables A-E) in DMSO in a polypropylene v-bottom plate (Costar #3363) in 1 of 3 dilution schemes. The contents of each well were mixed and transferred to a sterile polypropylene deep-well v-bottom plate (Costar #3960). 450 μL of cultured HEK293 cells in supplemented media at a density of 1.0 million cells/mL was added to each well. In the low volume assay, 100 μL of supplemented media plus 13C-acetate (1.0 mg/mL, Sigma Aldrich #282014) were added to either 0.1 μL or 1.0 uL of a compound (such as those in Tables A-E) in DMSO in a polypropylene v-bottom plate (Costar #3363) in 1 of 3 dilution schemes. 100 μL of cultured HEK293 cells in supplemented media at a density of 1.0 million cells/mL was added to each well. The high volume and low volume plates were sealed with either AirPore Tape Sheets (Qiagen #19571) or Duetz plate covers to control evaporation and placed into a shaking incubator at 225 rpm, 37° C., 5% CO2, and 80% humidity for 48 hours. For both the high and low volume assays the 3 dilution schemes used were as follows:
Following incubation, treated cells were harvested by centrifugation at 1690×g for 10 minutes. In the high volume assay 200 uL treated cells were transferred to a polypropylene v-bottom plate (Costar #3363) prior to centrifugation. In the low volume assay the incubation plate was centrifuged directly, without a transfer step. The supernatant was then discarded and the analytes were extracted using 1 of 2 different extraction schemes. In the first scheme, the cell pellet was visibly broken up by mixing the cell pellet up and down in 100 μL of hexane/isopropanol (60:40) 20 times. The resulting mixture was transferred to a 0.45 μm Durapore membrane (Millipore #MSH VN4510) atop a polypropylene v-bottom plate (Costar #3363) and filtered by centrifugation at 1690×g for 5 minutes. 120 μL of n-butanol containing 10 nM C13:0 lysophosphatidylcholine was added to the filtrate as an injection control standard, then the entire volume was transferred to a new Durapore membrane/v-bottom plate. In the second scheme, the cell pellet was visibly broken up by mixing the cell pellet up and down in 180 μL of methanol containing 10 nM C13:0 lysophosphatidylcholine 20 times. The resulting mixture was transferred to a 0.45 μm Durapore membrane (Millipore #MSH VN4510) atop a polypropylene v-bottom plate and filtered by centrifugation at 1690×g for 5 minutes. In both schemes, the plates were then sealed with pierceable capmats (Micronic MP53017) and stored at −20 OC until analyzed.
UHPLC/Mass Spectrometry Readout:
The filtered organic extraction was analyzed with a 1290 Agilent Infinity Series UHPLC coupled to an ABI Sciex QTrap 6500 mass spectrometer. […]

pIC50: −log10 of the molar value.

A word on the pIC50: it is the IC50 on a negative log10 scale, so that one unit is a factor of ten. Turning to `C[C@H](C(=O)Nc1ccn(-c2ccccc2)n1)c1ccccc1` [Compound 20, (2S)-2-phenyl-N-(1-phenylpyrazol-3-yl)propanamide], the negative-log IC50 (pIC50) was 7.59. In the case of `O=C(Nc1ccn(-c2ccccc2)n1)C1(c2cccc(F)c2)CC1` [Compound 21, 1-(3-fluorophenyl)-N-(1-phenylpyrazol-3-yl)cyclopropanecarboxamide] it was 6.82; in that of `O=C(Nc1ccn(-c2ccccc2)n1)C1(c2ccccc2F)CC1` [Compound 22, 1-(2-fluorophenyl)-N-(1-phenylpyrazol-3-yl)cyclopropanecarboxamide], 7.92. As for `O=C(Nc1ccn(-c2ccccc2)n1)C1(c2ccc(Cl)cc2)CC1` [Compound 23, 1-(4-chlorophenyl)-N-(1-phenylpyrazol-3-yl)cyclopropanecarboxamide], the pIC50 was 6.08. For the molecule `O=C(Nc1ccn(-c2ccccc2)n1)C1(c2ccccc2Cl)CC1` [Compound 24, 1-(2-chlorophenyl)-N-(1-phenylpyrazol-3-yl)cyclopropanecarboxamide], the pIC50 is 7.39.

Regarding `COc1ccc(C2(C(=O)Nc3ccn(-c4ccccc4)n3)CC2)cc1` [Compound 25, 1-(4-methoxyphenyl)-N-(1-phenylpyrazol-3-yl)cyclopropanecarboxamide], the negative logarithm of the IC50 (pIC50) is 5.44. As for `COc1cccc(C2(C(=O)Nc3ccn(-c4ccccc4)n3)CC2)c1` [Compound 26, 1-(3-methoxyphenyl)-N-(1-phenylpyrazol-3-yl)cyclopropanecarboxamide], the pIC50 is 6.57. For the molecule `C[C@@H](C(=O)Nc1ccn(-c2ccccc2)n1)c1ccccc1` [Compound 27, (2R)-2-phenyl-N-(1-phenylpyrazol-3-yl)propanamide], the pIC50 was 6.68. Consider `CC[C@@H](C(=O)Nc1ccn(-c2ccccc2)n1)c1ccccc1` [Compound 28, (2R)-2-phenyl-N-(1-phenylpyrazol-3-yl)butanamide], for which the pIC50 was 6.24. As to `O=C(Nc1ccn(-c2ccccc2)n1)C1(c2cc(F)cc(C(F)(F)F)c2)CC1` [Compound 29, 1-[3-fluoro-5-(trifluoromethyl)phenyl]-N-(1-phenylpyrazol-3-yl)cyclopropanecarboxamide], the negative-log IC50 (pIC50) is 5.72. With `CC(C)(C(=O)Nc1ccn(-c2ccccc2)n1)c1ccccc1` [Compound 30, 2-methyl-2-phenyl-N-(1-phenyl-1H-pyrazol-3-yl)propanamide], the negative logarithm of the IC50 (pIC50) was 6.49. On to `CC(C)C(C(=O)Nc1ccn(-c2ccccc2)n1)c1ccccc1` (stereo not shown) [Compound 31, 3-methyl-2-phenyl-N-(1-phenylpyrazol-3-yl)butanamide], for which the pIC50 was below 5.70. For the molecule `Cc1cccc(C2(C(=O)Nc3ccn(-c4ccccc4)n3)CC2)c1` [Compound 32, 1-(m-tolyl)-N-(1-phenylpyrazol-3-yl)cyclopropanecarboxamide], the pIC50 is 6.19. With `CCOc1ccc(C2(C(=O)Nc3ccn(-c4ccccc4)n3)CC2)cc1` [Compound 33, 1-(4-ethoxyphenyl)-N-(1-phenylpyrazol-3-yl)cyclopropanecarboxamide], the pIC50 is 6.00. Next, `O=C(Nc1ccn(-c2ccccc2)n1)C1(c2ccccc2)CCCC1` [Compound 34, 1-phenyl-N-(1-phenylpyrazol-3-yl)cyclopentanecarboxamide]: 5.68; `O=C(Nc1ccn(-c2ccccc2)n1)C1(c2ccccc2)CCC1` [Compound 35, 1-phenyl-N-(1-phenylpyrazol-3-yl)cyclobutanecarboxamide]: 6.48. For the molecule `Cc1cc(C)cc(C2(C(=O)Nc3ccn(-c4ccccc4)n3)CC2)c1` [Compound 36, 1-(3,5-dimethylphenyl)-N-(1-phenylpyrazol-3-yl)cyclopropanecarboxamide], the pIC50 was below 5.30.

On to `O=C(Cc1cccs1)Nc1ccn(-c2ccccc2)n1` [Compound 37, N-(1-phenylpyrazol-3-yl)-2-(2-thienyl)acetamide], for which the pIC50 was 7.19. With `O=C(Cc1ccncc1)Nc1ccn(-c2ccccc2)n1` [Compound 38, N-(1-phenylpyrazol-3-yl)-2-(4-pyridyl)acetamide], the pIC50 was below 5.30. With `O=C(Cc1cccnc1)Nc1ccn(-c2ccccc2)n1` [Compound 39, N-(1-phenylpyrazol-3-yl)-2-(3-pyridyl)acetamide], the negative logarithm of the IC50 (pIC50) is below 5.30. Turning to `O=C(Cc1ccccn1)Nc1ccn(-c2ccccc2)n1` [Compound 40, N-(1-phenylpyrazol-3-yl)-2-(2-pyridyl)acetamide], the pIC50 was 5.82. Turning to `O=C(Cc1ccccc1)Nc1ccn(-c2ccccc2)n1` [Compound 41, 2-phenyl-N-(1-phenylpyrazol-3-yl)acetamide], the pIC50 is 7.14. Take `Cc1ccc(CC(=O)Nc2ccn(-c3ccccc3)n2)cc1` [Compound 42, N-(1-phenylpyrazol-3-yl)-2-(p-tolyl)acetamide]: the negative-log IC50 (pIC50) was 6.15. Take `Cc1cccc(CC(=O)Nc2ccn(-c3ccccc3)n2)c1` [Compound 43, 2-(m-tolyl)-N-(1-phenylpyrazol-3-yl)acetamide]: the pIC50 is 5.72.

Take `Cc1ccccc1CC(=O)Nc1ccn(-c2ccccc2)n1` [Compound 44, 2-(o-tolyl)-N-(1-phenylpyrazol-3-yl)acetamide]: the pIC50 is 6.62.

As to `COc1ccc(CC(=O)Nc2ccn(-c3ccccc3)n2)cc1` [Compound 45, 2-(4-methoxyphenyl)-N-(1-phenylpyrazol-3-yl)acetamide], the pIC50 was below 5.30. Regarding `COc1cccc(CC(=O)Nc2ccn(-c3ccccc3)n2)c1` [Compound 46, 2-(3-methoxyphenyl)-N-(1-phenylpyrazol-3-yl)acetamide], the pIC50 was below 5.30. In the case of `CCOc1ccc(CC(=O)Nc2ccn(-c3ccccc3)n2)cc1` [Compound 47, 2-(4-ethoxyphenyl)-N-(1-phenylpyrazol-3-yl)acetamide], the negative-log IC50 (pIC50) is below 5.30. For the molecule `O=C(Cc1cccc(F)c1)Nc1ccn(-c2ccccc2)n1` [Compound 49, 2-(3-fluorophenyl)-N-(1-phenylpyrazol-3-yl)acetamide], the pIC50 was 5.72. For `O=C(Cc1cccc(Cl)c1)Nc1ccn(-c2ccccc2)n1` [Compound 50, 2-(3-chlorophenyl)-N-(1-phenylpyrazol-3-yl)acetamide], the pIC50 was below 5.30.

Consider `O=C(Cc1cccc(C(F)(F)F)c1)Nc1ccn(-c2ccccc2)n1` [Compound 51, N-(1-phenylpyrazol-3-yl)-2-[3-(trifluoromethyl)phenyl]acetamide], for which the pIC50 is below 5.70. As for `O=C(Cc1ccccc1C(F)(F)F)Nc1ccn(-c2ccccc2)n1` [Compound 52, N-(1-phenylpyrazol-3-yl)-2-[2-(trifluoromethyl)phenyl]acetamide], the negative logarithm of the IC50 (pIC50) is 5.96. In the case of `O=C(Cc1ccc(OC(F)(F)F)cc1)Nc1ccn(-c2ccccc2)n1` [Compound 53, N-(1-phenylpyrazol-3-yl)-2-[4-(trifluoromethoxy)phenyl]acetamide] it was below 5.30.

With `O=C(Cc1ccccc1OC(F)(F)F)Nc1ccn(-c2ccccc2)n1` [Compound 54, N-(1-phenylpyrazol-3-yl)-2-[2-(trifluoromethoxy)phenyl]acetamide], the pIC50 is below 5.30. Next, `Cc1ccc(C)c(CC(=O)Nc2ccn(-c3ccccc3)n2)c1` [Compound 55, 2-(2,5-dimethylphenyl)-N-(1-phenylpyrazol-3-yl)acetamide]: below 5.30; `O=C(Cc1ccc(O)c(F)c1)Nc1ccn(-c2ccccc2)n1` [Compound 56, 2-(3-fluoro-4-hydroxy-phenyl)-N-(1-phenylpyrazol-3-yl)acetamide]: below 5.30; `O=C(Cc1ccc(F)c(F)c1)Nc1ccn(-c2ccccc2)n1` [Compound 57, 2-(3,4-difluorophenyl)-N-(1-phenylpyrazol-3-yl)acetamide]: below 5.30.
